Reference: patent US4557754A, “Bis-(N,N-dimethyl-N-carbodecyloxymethyl-N-ethylene-ammonium)-sulphide dichloride and use thereof” (priority 1980, dated 1985)

Key:
oats = assay: Effect on development of sprouts, agar medium in Petri dishes; type: in vivo; design: Germination capacity, oats: unit not given here; settings: for Plant parts length, oats leaf / Plant parts length, oats root: 7 days
Method: (§1) The effect of the preparation was studied for 7 days under laboratory conditions on lettuce and oats plants.
(§2) The standards used in the tests were chlorocholine chloride whose structure is close to the studied chemical compound and heteroauxin phytohormone. Experiments on lettuce and oats growing in the presence of the above substances at a concentration of from 0.1 to 0.00001 wt.% were performed in Petri dishes with the use of agar medium as a substrate.
(§3) The seeds were placed into Petri dishes on solidified agar containing the test substance in the concentration indicated. The seeds germinated in a thermostat for 3 days at a temperature of from 22° to 24° C. Petri dishes with the sprouts were then placed for further growth into an exhausting hood with illumination for 4 days, whereafter the length of the roots, stalks and leaves of the sprouts was measured.

Rats [1] = settings: cited from earlier work
lettuce = assay: Effect on development of sprouts, agar medium in Petri dishes; type: in vivo; design: Germination capacity, lettuce: unit not given here; settings: for Plant parts length, lettuce root / Plant parts length, lettuce stalk: 7 days
Method: as §1, §2, §3

Staphylococcus albus = assay: Antimicrobial activity, series dilutions in liquid nutrient media; type: cell-based; settings: 20 strains
Method: (§4) Antimicrobial properties of said preparation were investigated by a classical method of series dilutions in standard liquid nutrient media.
(§5) The activity of the above preparation was tested by its action on staphylococci, Escherichia coli, and intestinal group microorganisms.

Escherichia coli = assay: as above; type: cell-based; settings: 10 strains
Method: as §4, §5

Proteus morgani = assay: as above; type: cell-based; settings: 4 strains
Method: as §4, §5

Staphylococcus aureus = assay: as above; type: cell-based; settings: 20 strains
Method: as §4, §5

Shigella sonnei = assay: as above; type: cell-based; settings: 7 strains
Method: as §4, §5

Proteus vulgaris = assay: as above; type: cell-based; settings: 2 strains
Method: as §4, §5

Salmonella sp. = assay: as above; type: cell-based; settings: 7 strains
Method: as §4, §5

Rats [2] = assay: Acute toxicity test; type: in vivo; settings: 24 hours
Method: (§6) Bis-(N,N-dimethyl-N-carbodecyloxymethyl-N-ethyleneammonium)-sulphide dichloride was tested for toxicity in an acute test on rats of both sexes with an average mass of 200 to 250 g and on white mice of both sexes with an average mass of 22 to 25 g with enteral and intraperitoneal administrations. Aqueous solutions of the above preparation (from 10 to 5000 mg per kg of animal weight) were used for enteral and intraperitoneal administration. Each dosage was tried on five animals. Animal death rate was registered 24 hours after the administration of the above solutions.

Acute toxicity test [3] = type: in vivo; settings: rat, in vivo, rats
Method: as §6

[4] = test system: staphylococci, Escherichia coli, and intestinal group microorganisms; assay: Antimicrobial action, overall; type: cell-based; settings: analysis of the test results
Method: as §4, §5

Solubility = type: physicochemical
Acute toxicity test [5] = type: in vivo, white mice; settings: mouse, in vivo, mice, 24 hours
Method: as §6

Mice = assay: Acute toxicity test; type: in vivo, white mice; settings: for LD100: mice, 24 hours
Method: as §6

[6] = Stability of aqueous solutions / retention of antimicrobial activity; type: physicochemical
Source text: Aqueous solutions of the preparation were stable.

calves = assay: Chronic toxicity test, intravenous; type: in vivo; settings: 10 mg per kg daily for 30 days
Source text: Test group consisted of 10 calves, the other 10 calves to which the above preparation was not prescribed making up a control group. The calves of both groups were kept in the same conditions. General state and behaviour of the calves, rate of gain were controlled and peripheric blood counts (hemoglobin, erythrocytes, leucocytes, thrombocytes, differential blood count) were made daily during the test. To determine the functional state of liver, kidneys, and pancreas, certain biochemical characteristics of the urine (protein, sugar, and biliary pigments content) and blood (sugar, cholesterol, bilirubin, urea, alkaline phosphatase, and chlorides content) were studied.
At the end of the test period the test group animals were killed and their internal organs were studied by macro- and microscopic techniques.

Rats [7] = assay: Toxicity (LD50) compared with chlorocholine chloride; type: in vivo; settings: versus chlorocholine chloride
[8] = Treatment of inflammatory diseases of the middle ear; type: in vivo, men; settings: for Recovery with comparator solutions: in a great number of cases; for Irrigations of the tympanic cavity required, relative to the preparation: solutions, for the same purpose
Method: was tested in treating inflammatory diseases of the middle ear in men: acute otitis and antritis media purulenta, chronic purulent mesotympanitis, and chronic purulent epitympanitis.
The treatment was applied to 65 patients.
The treatment procedure consisted in thorough and copious irrigation (with the help of Hartmann's cannula or blunt-ended needle) of the middle ear, attic, and Eustachian tube for maximum removal of purulent exudate and cholesteatoma masses.

[9] = read-out: Average bactericidal concentration
[10] = read-out: Average bacteriostatic concentration

C[N+](C)(C)CCCl.[Cl-] [Chlorocholine chloride]
Germination capacity, oats (oats; 0.0001 wt. %): 91
Plant parts length, oats leaf (oats; 0.0001 wt. %): 94
Plant parts length, oats root (oats; 0.0001 wt. %): 102
Germination capacity, oats (oats; 0.001 wt. %): 99
Plant parts length, oats leaf (oats; 0.001 wt. %): 97
Plant parts length, oats root (oats; 0.001 wt. %): 92
Germination capacity, oats (oats; 0.01 wt. %): 98
Plant parts length, oats leaf (oats; 0.01 wt. %): 96
Plant parts length, oats root (oats; 0.01 wt. %): 94
LD50 (Rats [1]): 250 mg/kg
Germination capacity, lettuce (lettuce; 0.0001 wt. %): 98
Plant parts length, lettuce root (lettuce; 0.0001 wt. %): 104
Plant parts length, lettuce stalk (lettuce; 0.0001 wt. %): 98
Germination capacity, lettuce (lettuce; 0.001 wt. %): 94
Plant parts length, lettuce root (lettuce; 0.001 wt. %): 102
Plant parts length, lettuce stalk (lettuce; 0.001 wt. %): 110
Germination capacity, lettuce (lettuce; 0.01 wt. %): 94
Inhibition of root development (lettuce; 0.01 wt. %): does not inhibit root development
Plant parts length, lettuce root (lettuce; 0.01 wt. %): 101
Plant parts length, lettuce stalk (lettuce; 0.01 wt. %): 99

O=C(O)Cc1c[nH]c2ccccc12 [Heteroauxine]
Germination capacity, oats (oats; 0.0001 wt. %): 100
Plant parts length, oats leaf (oats; 0.0001 wt. %): 92
Plant parts length, oats root (oats; 0.0001 wt. %): 88
Germination capacity, oats (oats; 0.001 wt. %): 102
Plant parts length, oats leaf (oats; 0.001 wt. %): 67
Plant parts length, oats root (oats; 0.001 wt. %): 28
Germination capacity, oats (oats; 0.01 wt. %): 84
Plant parts length, oats leaf (oats; 0.01 wt. %): 35
Plant parts length, oats root (oats; 0.01 wt. %): 19
Germination capacity, lettuce (lettuce; 0.0001 wt. %): 81
Plant parts length, lettuce root (lettuce; 0.0001 wt. %): 88
Plant parts length, lettuce stalk (lettuce; 0.0001 wt. %): 92
Germination capacity, lettuce (lettuce; 0.001 wt. %): 55
Plant parts length, lettuce root (lettuce; 0.001 wt. %): 27
Plant parts length, lettuce stalk (lettuce; 0.001 wt. %): 24
Germination capacity, lettuce (lettuce; 0.01 wt. %): 0
Plant parts length, lettuce root (lettuce; 0.01 wt. %): 0
Plant parts length, lettuce stalk (lettuce; 0.01 wt. %): 0

CCCCCCCCCCOC(=O)C[N+](C)(C)CCSCC[N+](C)(C)CC(=O)OCCCCCCCCCC [bis-(N,N-dimethyl-N-carbodecyloxymethyl-N-ethyleneammonium)-sulphide dichloride]
Germination capacity, oats (oats; 0.00001 wt. %): 91
Plant parts length, oats leaf (oats; 0.00001 wt. %): 105
Plant parts length, oats root (oats; 0.00001 wt. %): 100
Germination capacity, oats (oats; 0.0001 wt. %): 87
Plant parts length, oats leaf (oats; 0.0001 wt. %): 99
Plant parts length, oats root (oats; 0.0001 wt. %): 86
Germination capacity, oats (oats; 0.001 wt. %): 87
Plant parts length, oats leaf (oats; 0.001 wt. %): 96
Plant parts length, oats root (oats; 0.001 wt. %): 88
Germination capacity, oats (oats; 0.01 wt. %): 86
Plant parts length, oats leaf (oats; 0.01 wt. %): 93
Plant parts length, oats root (oats; 0.01 wt. %): 54
Germination capacity, oats (oats; 0.1 wt. %): 87
Plant parts length, oats leaf (oats; 0.1 wt. %): 55
Plant parts length, oats root (oats; 0.1 wt. %): 6
Inhibition of growth of roots versus leaves (oats; oats (monocotyledonous)): more strongly inhibits the growth of roots than that of leaves
MBC (Staphylococcus albus; [9]): 1.67 µg/mL
MIC (Staphylococcus albus; [10]): 0.6 µg/mL
MBC (Escherichia coli; [9]): 6.4 µg/mL
MIC (Escherichia coli; [10]): 3.9 µg/mL
MBC (Proteus morgani; [9]): 50.7 µg/mL
MIC (Proteus morgani; [10]): 50.7 µg/mL
MBC (Staphylococcus aureus; [9]): 2.63 µg/mL
MIC (Staphylococcus aureus; [10]): 0.76 µg/mL
MBC (Shigella sonnei; [9]): 28.4 µg/mL
MIC (Shigella sonnei; [10]): 5.85 µg/mL
MBC (Proteus vulgaris; [9]): 62.5 µg/mL
MIC (Proteus vulgaris; [10]): 62.5 µg/mL
MBC (Salmonella sp.; [9]): 31.2 µg/mL
MIC (Salmonella sp.; [10]): 31.2 µg/mL
LD100 (Rats [2]; enteral): 3500 mg/kg
LD100 (Rats [2]; intraperitoneal): 80.0 mg/kg
LD50 at 24 h (Acute toxicity test [3]; ip, intraperitoneal): 67.7 mg/kg
LD50 at 24 h (Acute toxicity test [3]; po, enteral): 2660 mg/kg
Antimicrobial action, overall [4]: strong antimicrobial action
Solubility in diethyl ether (Solubility; diethyl ether): insoluble
Solubility in lower alcohols (Solubility; lower alcohols): soluble
Solubility in water (Solubility; water): soluble
LD50 at 24 h (Acute toxicity test [5]; ip, intraperitoneal): 54.1 mg/kg
LD50 at 24 h (Acute toxicity test [5]; po, enteral): 1220 mg/kg
Toxicity group, overall (Mice; analysis of the test results (mice, rats, calves)): low-toxic
LD100 (Mice; enteral): 2500 mg/kg
LD100 (Mice; intraperitoneal): 70.0 mg/kg
Activity after storage of solutions ([6]; 1% and 0.1% solutions, 6 months): did not lose its activity
Stability of aqueous solutions ([6]; aqueous solutions): stable
Antimicrobial activity as a function of pH ([6]; pH 5 to 8): remains unchanged
Antimicrobial activity after autoclaving ([6]; single and double autoclaving, 60 minutes at 2.5 atm): did not alter the antimicrobial activity
Germination capacity, lettuce (lettuce; 0.00001 wt. %): 86
Plant parts length, lettuce root (lettuce; 0.00001 wt. %): 91
Plant parts length, lettuce stalk (lettuce; 0.00001 wt. %): 91
Germination capacity, lettuce (lettuce; 0.0001 wt. %): 89
Plant parts length, lettuce root (lettuce; 0.0001 wt. %): 96
Plant parts length, lettuce stalk (lettuce; 0.0001 wt. %): 99
Germination capacity, lettuce (lettuce; 0.001 wt. %): 100
Plant parts length, lettuce root (lettuce; 0.001 wt. %): 88
Plant parts length, lettuce stalk (lettuce; 0.001 wt. %): 91
Germination capacity, lettuce (lettuce; 0.01 wt. %): 34
Plant parts length, lettuce root (lettuce; 0.01 wt. %): 15
Plant parts length, lettuce stalk (lettuce; 0.01 wt. %): 38
Germination capacity, lettuce (lettuce; 0.1 wt. %): 0
Plant parts length, lettuce root (lettuce; 0.1 wt. %): 2
Plant parts length, lettuce stalk (lettuce; 0.1 wt. %): 0
Herbicidal action (lettuce; 0.1 wt.%, dicotyledonous plants): selective herbicide
Phytoncidal action (lettuce; lettuce (dicotyledonous)): more phytoncidal
Pathologic changes at autopsy, macro- and microscopic study (calves): no pathologic changes
Changes in the calves under chronic test conditions (calves; 0.2 wt.% in sodium chloride solution): did not cause significant changes
Toxicity compared with chlorocholine chloride (Rats [7]): much lower

CC1(C)S[C@@H]2[C@H](NC(=O)Cc3ccccc3)C(=O)N2[C@H]1C(=O)O [penicillin]
Recovery with comparator solutions [8]: did not result in recovery
Irrigations of the tympanic cavity required, relative to the preparation [8]: twice as many or even more

[H]/N=C(/N)N[C@H]1[C@H](O)[C@@H](O)[C@H](O[C@@H]2O[C@@H](C)[C@](O)(C=O)[C@H]2O[C@@H]2O[C@@H](CO)[C@H](O)[C@@H](O)[C@@H]2NC)[C@@H](N/C(N)=N\[H])[C@@H]1O [streptomycin]
Recovery with comparator solutions [8]: did not result in recovery
Irrigations of the tympanic cavity required, relative to the preparation [8]: twice as many or even more
